# Source: paper PMC3256143, “Blue News Update: BODIPY-GTP Binds to the Blue-Light Receptor YtvA While GTP Does Not” (PLoS ONE, 2012)
# Assays:
# [1] = molecular target: T1, YtvA (Bacillus subtilis, UniProt O34627, M1G); assay: ITC; also 1H-15N TROSY/HSQC, STD and WaterLOGSY NMR, fluorescence; assay type: binding
# T1 construct: gene pfyP; full-length YtvA (Met1 replaced by Gly)
# [2] = molecular target: T2, YtvA (Bacillus subtilis, UniProt O34627, M1G); assay: fluorescence enhancement on adding protein ([…] YtvA, […] dye); assay type: binding
# T2 construct: gene pfyP; full-length YtvA and isolated STAS domain (amino acids 148–261)
# T2 sequence (O34627 1-261 M1G): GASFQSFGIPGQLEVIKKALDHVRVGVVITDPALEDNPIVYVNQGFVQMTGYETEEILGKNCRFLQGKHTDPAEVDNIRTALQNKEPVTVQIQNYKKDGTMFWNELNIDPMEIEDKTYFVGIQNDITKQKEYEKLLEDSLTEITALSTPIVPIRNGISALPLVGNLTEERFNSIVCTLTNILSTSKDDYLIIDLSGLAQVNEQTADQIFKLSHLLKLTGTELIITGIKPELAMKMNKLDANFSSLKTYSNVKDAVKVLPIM
Structure (SMILES),Kd [1] [nM],"fluorescence enhancement on adding protein (12 μM YtvA, 2.2 μM dye) [2]"
Nc1nc2c(ncn2[C@@H]2O[C@H](COP(=O)(O)OP(=O)(O)OP(=O)(O)O)[C@@H](O)[C@H]2OC(=O)NCCNC(=O)COc2ccc(C3=[N+]4C(=Cc5ccc(-c6cccs6)n5[B-]4(F)F)C=C3)cc2)c(=O)[nH]1 [BODIPY-GTP],2500,–
COC(=O)COc1ccc(-c2ccc3n2[B-](F)(F)[N+]2=C(c4cccs4)C=CC2=C3)cc1 [BODIPY methyl ester],–,This suggests that only the fluorophore is binding to the protein but the GTP part does not.
